Experimental data from patent US4298617A, “Symmetrical and asymmetrical sulfinyl-dicarbamates” (priority 1979, dated 1981).
Read-outs that look alike come from different tables or passages of the source.

Tests used:
Swiss white mice = experiment: in vivo
Procedure: (§1) Mammalian toxicity was determined against Swiss white mice. The test compound was applied orally using corn oil or propylene glycol as the carrier, depending upon solubility of the compound therein.

[1] = test system: house flies, Musca domestica; experiment: Topical insecticidal activity against house flies (percent mortality 24 hours after application); format: in vivo; settings: read-out: House flies LD50
Procedure: (§2) Representative compounds of the N,N'-sulfinyldicarbamate esters of the invention were tested for insecticidal activity against two insect species, house flies, Musca domestica, and mosquito larvae, Culex pipiens. Stock 1% concentrated solutions of each of the test compounds were made in acetone, and such solutions diluted with acetone to a concentration of 0.001-0.1%. House flies were treated topically on the notum by 1 μl of each of the diluted acetone solutions and percent mortality was counted 24 hours after application. Insects were held at a constant temperature of 60° F. Larvicidal activity was determined by applying 1 ml of the acetone solution in 100 ml of water containing 20 3rd instar mosquito larvae. Results are presented as LD50 in μg/g for house flies and LC50 in ppm for mosquito larvae.

in vivo = settings: mouse, in vivo, po
Procedure: as §1

[2] = test system: mosquito larvae, Culex pipiens; experiment: Larvicidal activity against mosquito larvae; format: in vivo; settings: 3rd instar larvae, 1 ml acetone solution in 100 ml water, 20 larvae
Procedure: as §2

[3] = topical on the notum, 1 μl acetone solution, 24 hours, 60° F.

CNC(=O)Oc1ccccc1OC(C)C [2-isopropoxyphenyl methylcarbamate, reference compound]
Mice LD50 (Swiss white mice; oral, corn oil or propylene glycol carrier): 60 mg/kg

CCOC(=O)N(C)[S+]([O-])N(C)C(=O)Oc1cccc(C(C)C)c1 (centres unmarked) [3-isopropylphenyl N-[N'-(ethoxycarbonyl)-N'-(methylaminosulfinyl)]-N-methylcarbamate]
LD50 ([1]; topical, 24 h): 75 mg/kg
LD50 (in vivo): 50 to 100 mg/kg

CN(C(=O)Oc1cccc2c1OC(C)(C)C2)[S+]([O-])N(C)C(=O)Oc1cccc2c1OC(C)(C)C2 [Example I, N,N'-sulfinyldi-(2,3-dimethyl-2,3-dihydrobenzofuranyl-7 methylcarbamate)]
LD50 ([1]; topical, 24 h): 20 mg/kg
LD50 (in vivo): 165 mg/kg

CC(C)Oc1ccccc1OC(=O)N(C)[S+]([O-])N(C)C(=O)Oc1ccccc1OC(C)C [Example II, N,N'-sulfinyldi-(2-isopropoxyphenyl methylcarbamate)]
LD50 ([1]; topical, 24 h): 85 mg/kg
LD50 (in vivo): 940 mg/kg

CSC(C)=NOC(=O)N(C)[S+]([O-])N(C)C(=O)ON=C(C)SC [Example III]
LD50 [1, 3]: 40 mg/kg
LD50 (in vivo): 210 mg/kg

COC(=O)N(C)[S+]([O-])N(C)C(=O)Oc1cccc2c1OC(C)(C)C2 (centres unmarked) [Example VII, 2,3-dihydro-2,2-dimethylbenzofuranyl-7 N-[N'-(methoxycarbonyl)-N'-(methylaminosulfinyl)]-N-methylcarbamate]
LD50 ([1]; topical, 24 h): 9 mg/kg
LD50 (in vivo): 62 mg/kg

CCCOC(=O)N(C)[S+]([O-])N(C)C(=O)ON=C(C)SC (centres unmarked) [Example VI]
LD50 [1, 3]: 6.6 mg/kg
LD50 (in vivo): 160 mg/kg

CCCOC(=O)N(CC)[S+]([O-])N(C)C(=O)ON=C(C)SC (centres unmarked) [Example V]
LD50 [1, 3]: 7 mg/kg
LD50 (in vivo): 115 mg/kg

CSC(C)(C)C=NOC(=O)N(C)[S+]([O-])N(C)C(=O)ON=CC(C)(C)SC [IV, N,N'-sulfinyldi[2-methyl-2-(methylthio)propionaldehyde O-(methylcarbamoyl)-oxime]]
LD50 [1, 3]: 6.5 mg/kg
LD50 (in vivo): 1.8 mg/kg

CCCOC(=O)N(C)[S+]([O-])N(C)C(=O)Oc1cccc2c1OC(C)(C)C2 (centres unmarked) [IX, 2,3-dihydro-2,2-dimethylbenzofuranyl-7 N-[N'-(n-propoxycarbonyl)-N'-(methylaminosulfinyl)]-N-methylcarbamate]
LD50 ([1]; topical, 24 h): 9 mg/kg
LD50 (in vivo): 100 mg/kg

CNC(=O)ON=C(C)SC [S-methyl N-(methylcarbamoyloxy)thioacetimidate, reference compound]
LD50 (in vivo): 10 mg/kg

CCOC(=O)N(C)[S+]([O-])N(C)C(=O)Oc1cccc2c1OC(C)(C)C2 (centres unmarked) [VIII, 2,3-dihydro-2,2-dimethylbenzofuranyl-7 N-[N'-(ethoxycarbonyl)-N'-(methylaminosulfinyl)]-N-methylcarbamate]
Culex LC50 [2]: 0.04 ppm
LD50 ([1]; topical, 24 h): 13 mg/kg
LD50 (in vivo): 56 mg/kg

CCCCCCCOC(=O)N(C)[S+]([O-])N(C)C(=O)Oc1cccc2c1OC(C)(C)C2 (centres unmarked) [X, 2,3-dihydro-2,2-dimethylbenzofuranyl-7 N-[N'-(n-heptoxycarbonyl)-N'-(methylaminosulfinyl)]-N-methylcarbamate]
Culex LC50 [2]: 0.015 ppm
LD50 ([1]; topical, 24 h): 13.5 mg/kg
LD50 (in vivo): 150 mg/kg

CCCOC(=O)N(C)[S+]([O-])N(C)C(=O)Oc1ccccc1OC(C)C (centres unmarked) [XI, 2-isopropoxyphenyl N-[N'-(n-propoxycarbonyl)-N'-(methylaminosulfinyl)]-N-methylcarbamate]
Culex LC50 [2]: 0.18 ppm
LD50 ([1]; topical, 24 h): 20 mg/kg
LD50 (in vivo): 500 to 1000 mg/kg

COC(=O)N(C)[S+]([O-])N(C)C(=O)Oc1cccc(C(C)C)c1 (centres unmarked) [XII, 3-isopropylphenyl N-[N'-(methoxycarbonyl)-N'-(methylaminosulfinyl)]-N-methylcarbamate]
LD50 ([1]; topical, 24 h): 80 mg/kg
LD50 (in vivo): 70 mg/kg

CNC(=O)Oc1cccc2c1OC(C)(C)C2 [carbofuran, 2,3-dihydro-2,2-dimethyl-7-benzofuranyl methylcarbamate, reference compound]
Mice LD50 (Swiss white mice; mouse, in vivo, po): 2-8
